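Each compound was tested at five concentrations against cells in 96-well plates for 48 hours. Here, GI50 denotes the concentration required for 50% inhibition of growth. TGI is the concentration that stops growth completely.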
What was measured:
Experiment in all cases: NCI tumour cell line growth inhibition, 48 h
786-0 renal = tested on: 786-0 renal
A498 renal = tested on: A498 renal
A549 NSCLC = tested on: A549 NSCLC
ACHN renal = tested on: ACHN renal
BT-549 breast = tested on: BT-549 breast
CAKI-1 renal = tested on: CAKI-1 renal
COLO 205 colon = tested on: COLO 205 colon
DU-145 prostate = tested on: DU-145 prostate
EKVX NSCLC = tested on: EKVX NSCLC
HCC-2998 colon = tested on: HCC-2998 colon
HCT-116 colon = tested on: HCT-116 colon
HCT-15 colon = tested on: HCT-15 colon
HL-60(TB) leukemia = tested on: HL-60(TB) leukemia
HOP-62 NSCLC = tested on: HOP-62 NSCLC
HOP-92 NSCLC = tested on: HOP-92 NSCLC
HS 578T breast = tested on: HS 578T breast
HT29 colon = tested on: HT29 colon
IGROV1 ovarian = tested on: IGROV1 ovarian
K-562 leukemia = tested on: K-562 leukemia
KM12 colon = tested on: KM12 colon
M14 melanoma = tested on: M14 melanoma
MALME-3M melanoma = tested on: MALME-3M melanoma
MCF7 breast = tested on: MCF7 breast
MDA-MB-231 breast = tested on: MDA-MB-231 breast
MDA-MB-435 = tested on: MDA-MB-435
MOLT-4 leukemia = tested on: MOLT-4 leukemia
NCI-H226 lung = tested on: NCI-H226 lung
NCI-H460 lung = tested on: NCI-H460 lung
NCI-H522 lung = tested on: NCI-H522 lung
NCI/ADR-RES ovarian = tested on: NCI/ADR-RES ovarian
OVCAR-3 ovarian = tested on: OVCAR-3 ovarian
OVCAR-4 ovarian = tested on: OVCAR-4 ovarian
OVCAR-5 ovarian = tested on: OVCAR-5 ovarian
OVCAR-8 ovarian = tested on: OVCAR-8 ovarian
PC-3 prostate = tested on: PC-3 prostate
RPMI-8226 leukemia = tested on: RPMI-8226 leukemia
RXF 393 renal = tested on: RXF 393 renal
SF-268 CNS = tested on: SF-268 CNS
SF-295 CNS = tested on: SF-295 CNS
SF-539 CNS = tested on: SF-539 CNS
SK-MEL-2 melanoma = tested on: SK-MEL-2 melanoma
SK-MEL-28 melanoma = tested on: SK-MEL-28 melanoma
SK-MEL-5 melanoma = tested on: SK-MEL-5 melanoma
SK-OV-3 ovarian = tested on: SK-OV-3 ovarian
SN12C renal = tested on: SN12C renal
SNB-19 CNS = tested on: SNB-19 CNS
SNB-75 CNS = tested on: SNB-75 CNS
T-47D breast = tested on: T-47D breast
TK-10 renal = tested on: TK-10 renal
U251 CNS = tested on: U251 CNS
UACC-257 melanoma = tested on: UACC-257 melanoma
UACC-62 melanoma = tested on: UACC-62 melanoma
UO-31 renal = tested on: UO-31 renal

`C=C1C(=O)O[C@H]2[C@H]1CC/C(COC(=O)/C=C/C(=O)NCc1ccc(Cn3c(=O)sn(-c4ccccc4)c3=O)cc1)=C\CC[C@@]1(C)O[C@@H]21` showed a GI50 (786-0 renal) of 1.61 µM, a TGI (786-0 renal) of 3.33 µM and a GI50 (A498 renal) of 3.45 µM. The TGI (A498 renal) was 9.55 µM, the GI50 (A549 NSCLC) was 17.2 µM and the TGI (A549 NSCLC) was 37 µM. For the same compound, the GI50 (ACHN renal) was 1.84 µM, the TGI (ACHN renal) was 3.78 µM and the GI50 (BT-549 breast) was 1.55 µM. For the same compound, the TGI (BT-549 breast) was 2.91 µM, the GI50 (CAKI-1 renal) was 11.7 µM and the TGI (CAKI-1 renal) was 24.4 µM. For the same compound, the GI50 (COLO 205 colon) was 1.74 µM, the TGI (COLO 205 colon) was 3.47 µM and the GI50 (DU-145 prostate) was 1.95 µM. The TGI (DU-145 prostate) was 4.07 µM, the GI50 (EKVX NSCLC) was 4.82 µM and the TGI (EKVX NSCLC) was 17.6 µM. It also gave a GI50 (HCC-2998 colon) of 2.11 µM, a TGI (HCC-2998 colon) of 4.46 µM and a GI50 (HCT-116 colon) of 0.382 µM. For the same compound, the TGI (HCT-116 colon) was 1.44 µM, the GI50 (HCT-15 colon) was 3.22 µM and the TGI (HCT-15 colon) was 13.6 µM. It also gave a GI50 (HL-60(TB) leukemia) of 0.925 µM, a TGI (HL-60(TB) leukemia) of 5.3 µM and a GI50 (HOP-62 NSCLC) of 13.2 µM. For the same compound, the TGI (HOP-62 NSCLC) was 27.1 µM, the GI50 (HOP-92 NSCLC) was 1.85 µM and the TGI (HOP-92 NSCLC) was 3.55 µM. For the same compound, the GI50 (HS 578T breast) was 3.95 µM, the TGI (HS 578T breast) was 35.4 µM and the GI50 (HT29 colon) was 1.86 µM. It also gave a TGI (HT29 colon) of 3.84 µM, a GI50 (IGROV1 ovarian) of 2.44 µM and a TGI (IGROV1 ovarian) of 7.24 µM. For the same compound, the GI50 (K-562 leukemia) was 0.501 µM, the TGI (K-562 leukemia) was 18.4 µM and the GI50 (KM12 colon) was 2.96 µM. The TGI (KM12 colon) was 11.6 µM, the GI50 (M14 melanoma) was 1.86 µM and the TGI (M14 melanoma) was 4.37 µM. For the same compound, the GI50 (MALME-3M melanoma) was 0.933 µM, the TGI (MALME-3M melanoma) was 2.41 µM and the GI50 (MCF7 breast) was 1.75 µM. The TGI (MCF7 breast) was 7.72 µM, the GI50 (MDA-MB-231 breast) was 2.02 µM and the TGI (MDA-MB-231 breast) was 3.98 µM. The GI50 (MDA-MB-435) was 1.73 µM, the TGI (MDA-MB-435) was 3.44 µM and the GI50 (MOLT-4 leukemia) was 1.14 µM. For the same compound, the TGI (MOLT-4 leukemia) was 5.2 µM, the GI50 (NCI-H226 lung) was 14.6 µM and the TGI (NCI-H226 lung) was 32.8 µM. The GI50 (NCI-H460 lung) was 5.28 µM, the TGI (NCI-H460 lung) was 22.2 µM and the GI50 (NCI-H522 lung) was 0.406 µM. For the same compound, the TGI (NCI-H522 lung) was 1.77 µM, the GI50 (NCI/ADR-RES ovarian) was 47.8 µM and the TGI (NCI/ADR-RES ovarian) was > 100 µM. It also gave a GI50 (OVCAR-3 ovarian) of 0.519 µM, a TGI (OVCAR-3 ovarian) of 1.72 µM and a GI50 (OVCAR-4 ovarian) of 2.69 µM. For the same compound, the TGI (OVCAR-4 ovarian) was 8.09 µM, the GI50 (OVCAR-5 ovarian) was 2.69 µM and the TGI (OVCAR-5 ovarian) was 5.8 µM. The GI50 (OVCAR-8 ovarian) was 2.32 µM, the TGI (OVCAR-8 ovarian) was 5.39 µM and the GI50 (PC-3 prostate) was 2.84 µM. It also gave a TGI (PC-3 prostate) of 9.54 µM, a GI50 (RPMI-8226 leukemia) of 1.21 µM and a TGI (RPMI-8226 leukemia) of 4.78 µM. It also gave a GI50 (RXF 393 renal) of 1.43 µM, a TGI (RXF 393 renal) of 2.83 µM and a GI50 (SF-268 CNS) of 2.67 µM. For the same compound, the TGI (SF-268 CNS) was 10.9 µM, the GI50 (SF-295 CNS) was 18.3 µM and the TGI (SF-295 CNS) was 32.7 µM. It also gave a GI50 (SF-539 CNS) of 1.84 µM, a TGI (SF-539 CNS) of 3.45 µM and a GI50 (SK-MEL-2 melanoma) of 2.22 µM. For the same compound, the TGI (SK-MEL-2 melanoma) was 5.57 µM, the GI50 (SK-MEL-28 melanoma) was 1.74 µM and the TGI (SK-MEL-28 melanoma) was 3.28 µM. For the same compound, the GI50 (SK-MEL-5 melanoma) was 2.36 µM, the TGI (SK-MEL-5 melanoma) was 6.27 µM and the GI50 (SK-OV-3 ovarian) was 30.3 µM. The TGI (SK-OV-3 ovarian) was > 100 µM, the GI50 (SN12C renal) was 2.16 µM and the TGI (SN12C renal) was 5.95 µM. For the same compound, the GI50 (SNB-19 CNS) was 4.8 µM, the TGI (SNB-19 CNS) was 19.4 µM and the GI50 (SNB-75 CNS) was 3.41 µM. The TGI (SNB-75 CNS) was 15.2 µM, the GI50 (T-47D breast) was 2.22 µM and the TGI (T-47D breast) was 7.21 µM. For the same compound, the GI50 (TK-10 renal) was 1.92 µM, the TGI (TK-10 renal) was 3.85 µM and the GI50 (U251 CNS) was 3.46 µM. It also gave a TGI (U251 CNS) of 12.1 µM, a GI50 (UACC-257 melanoma) of 1.74 µM and a TGI (UACC-257 melanoma) of 4.07 µM. The GI50 (UACC-62 melanoma) was 1.61 µM, the TGI (UACC-62 melanoma) was 3.26 µM and the GI50 (UO-31 renal) was 2.19 µM. The TGI (UO-31 renal) was 5.09 µM.
